Laboratory results as given in patent publication US5120711A, “Synergistically active veterinary compositions and process for preparing same” (EGIS Gyogyszergyar, priority 1988, dated 1992).
Positions of bridges follow the written chain, without caps; N, C: chain ends. Non-standard residues stand in square brackets, D forms with d. Residues, ends and D or L forms follow the SMILES beside them. *: point of attachment. Octanoyl(6-Me) = CCC(C)CCCCC(=O)*; Dab = NCC[CH](N)C(=O)O

Experiments:
Escherichia coli 17 = assay: microbe, parasite or virus in culture; details: for MIC: Escherichia coli, 17, read-out: MIC values for microorganism D (Escherichia coli 17)
Protocol: (§1) The minimum inhibitory concentrations (MIC values) of the above compounds and their two-component combinations of 1:1 ratio by weight against the following microorganisms arising from mastitis and metritis processes of cattle were tested by using the serial dilution method in a phenol red-glucose broth medium (manufactured by DIFCO) or, by using a Sabouraud's broth medium, respectively in the cases of fungal strains.
(§2) Bacterial strains were cultivated at 37° C. whilst the fungal strain (Candida albicans) was propagated at 26° C.

Escherichia coli 494 = assay: microbe, parasite or virus in culture; details: for MIC: Escherichia coli, 494, read-out: MIC values for microorganism C (Escherichia coli 494)
Protocol: as §1, §2

Staphylococcus aureus = assay: microbe, parasite or virus in culture; details: for MIC: Staphylococcus aureus, read-out: MIC values for microorganism A (Staphylococcus aureus)
Protocol: as §1, §2

[1] = test system: Streptococcus zooepidemicus; assay: MIC, serial dilution in phenol red-glucose broth; format: cell-based; details: bactericidal, complete inhibition of growth, 37° C.; for MIC: Streptococcus equi, read-out: MIC values for microorganism B (Streptococcus zooepidemicus)
Protocol: as §1
B--Streptococcus zooepidemicus
as §2

Pseudomonas aeruginosa = assay: MIC, serial dilution in phenol red-glucose broth; format: cell-based; details: bactericidal, complete inhibition of growth, 37° C.; for MIC: Pseudomonas aeruginosa, read-out: MIC values for microorganism F (Pseudomonas aeruginosa)
Protocol: as §1
F--Pseudomonas aeruginosa
as §2

Candida albicans = assay: MIC, serial dilution in Sabouraud's broth; format: cell-based; details: for MIC: Candida albicans, read-out: MIC values for microorganism G (Candida albicans)
Protocol: as §1, §2

Streptococcus agalactiae = assay: MIC, serial dilution in phenol red-glucose broth; format: cell-based; details: bactericidal, complete inhibition of growth, 37° C.; for MIC: Streptococcus agalactiae, read-out: MIC values for microorganism H (Streptococcus agalactiae)
Protocol: as §1
H--Streptococcus agalactiae
as §2

[2] = test system: Streptococcus dysgalactiae; assay: MIC, serial dilution in phenol red-glucose broth; format: cell-based; details: bactericidal, complete inhibition of growth, 37° C.; for MIC: Streptococcus dysgalactiae, read-out: MIC values for microorganism I (Streptococcus dysgalactiae)
Protocol: as §1
I--Streptococcus dysgalactiae
as §2

Streptococcus faecalis = assay: MIC, serial dilution in phenol red-glucose broth; format: cell-based; details: bactericidal, complete inhibition of growth, 37° C.; for MIC: Enterococcus faecalis, read-out: MIC values for microorganism K (Streptococcus faecalis)
Protocol: as §1
K--Streptococcus faecalis
as §2

Listeria monocytogenes = assay: MIC, serial dilution in phenol red-glucose broth; format: cell-based; details: bactericidal, complete inhibition of growth, 37° C.; for MIC: Listeria monocytogenes, read-out: MIC values for microorganism L (Listeria monocytogenes)
Protocol: as §1
L--Listeria monocytogenes
as §2

Corynebacterium pyogenes = assay: MIC, serial dilution in phenol red-glucose broth; format: cell-based; details: bactericidal, complete inhibition of growth, 37° C.; for MIC: Corynebacterium pyogenes, read-out: MIC values for microorganism M (Corynebacterium pyogenes)
Protocol: as §1
M--Corynebacterium pyogenes
as §2

Salmonella typhimurium = assay: MIC, serial dilution in phenol red-glucose broth; format: cell-based; details: bactericidal, complete inhibition of growth, 37° C.; for MIC: Salmonella enterica, TYPHIMURIUM, read-out: MIC values for microorganism N (Salmonella typhimurium)
Protocol: as §1
N--Salmonella typhimurium
as §2

Campylobacter fetus = assay: MIC in semiliquid thiol culture medium; format: cell-based; details: bactericidal, complete inhibition of growth, 37° C.; for MIC: Campylobacter fetus, read-out: MIC values for microorganism O (Campylobacter fetus)
Protocol: as §1
(§3) Campylobacter strains were tested in a semiliquid thiol culture medium (manufactured by DIFCO). Bacteroides fragilis and Fusobacterium necrophorum strains were examined by using the agar dilution method on bloody agar containing also tryptose.
as §2

Campylobacter jejuni = assay: MIC in semiliquid thiol culture medium; format: cell-based; details: bactericidal, complete inhibition of growth, 37° C.; for MIC: Campylobacter jejuni, read-out: MIC values for microorganism P (Campylobacter jejuni)
Protocol: as §1, §3, §2

Bacteroides fragilis = assay: MIC, agar dilution method on bloody agar; format: cell-based; details: agar dilution method on bloody agar containing tryptose, 37° C.; for MIC: Bacteroides fragilis, read-out: MIC values for microorganism R (Bacteroides fragilis)
Protocol: as §1, §3, §2

[3] = test system: Fusobacterium necrophorum; assay: MIC, agar dilution method on bloody agar; format: cell-based; details: agar dilution method on bloody agar containing tryptose, 37° C.; for MIC: Fusobacterium necrophorum, read-out: MIC values for microorganism S (Fusobacterium necrophorum)
Protocol: as §1
S--Fusobacterium necrophorum
as §3, §2

Mycoplasma bovis = assay: MIC, serial dilution in phenol red-glucose broth; format: cell-based; details: bactericidal, complete inhibition of growth, 37° C.; for MIC: Mycoplasmopsis bovis, read-out: MIC values for microorganism T (Mycoplasma bovis)
Protocol: as §1
Bacterial strains were cultivated at 37° C. whilst the fungal strain (Candida albicans) was propagated at 26° C. The minimum inhibitory concentrations (MIC values) showing a bactericidal effect, i.e. complete inhibition of the growth of microorganisms whereby the media inoculated remained sterile, are summarized in Table 1.

Klebsiella pneumoniae = assay: MIC, serial dilution in phenol red-glucose broth; format: cell-based; details: bactericidal, complete inhibition of growth, 37° C.; for MIC: Klebsiella pneumoniae, read-out: MIC values for microorganism E (Klebsiella pneumoniae)
Protocol: as §1, §2

Mycoplasma bovirhinis = assay: MIC, serial dilution in phenol red-glucose broth; format: cell-based; details: bactericidal, complete inhibition of growth, 37° C.; for MIC: Mycoplasma, read-out: MIC values for microorganism U (Mycoplasma bovirhinis)
Protocol: as §1, §2

Mycoplasma canadense = assay: MIC, serial dilution in phenol red-glucose broth; format: cell-based; details: bactericidal, complete inhibition of growth, 37° C.; for MIC: Mycoplasma, read-out: MIC values for microorganism V (Mycoplasma canadense)
Protocol: as §1, §2

Streptococcus uberis = assay: MIC, serial dilution in phenol red-glucose broth; format: cell-based; details: bactericidal, complete inhibition of growth, 37° C.; for MIC: Streptococcus uberis, read-out: MIC values for microorganism J (Streptococcus uberis)
Protocol: as §1, §2

Aspergillus fumigatus = assay: MIC, serial dilution in Sabouraud's broth; format: cell-based; details: complete inhibition of growth; for MIC: Aspergillus fumigatus, read-out: MIC values for microorganism Z (Aspergillus fumigatus)
Protocol: as §1
Z--Aspergillus fumigatus.
as §2

[4] = complete inhibition of growth, Sabouraud's broth, 26° C.
[5] = bactericidal, complete inhibition of growth, phenol red-glucose broth, 37° C.

Cc1ccc2c(Cl)cc(Cl)c(O)c2n1 [Chlorquinaldol, 2-methyl-5,7-dichloro-8-hydroxyquinoline]
MIC (Escherichia coli 17): 5 µg/mL
MIC (Escherichia coli 494): 5 µg/mL
MIC (Staphylococcus aureus): 5 µg/mL
MIC [1]: 0.5 µg/mL
MIC (Pseudomonas aeruginosa): 200 µg/mL
MIC (Candida albicans; [4]): 1 µg/mL
MIC (Streptococcus agalactiae): 0.5 µg/mL
MIC [2]: 0.5 µg/mL
MIC (Streptococcus faecalis): 5 µg/mL
MIC (Listeria monocytogenes): 1 µg/mL
MIC (Corynebacterium pyogenes): 5 µg/mL
MIC (Salmonella typhimurium): 200 µg/mL
MIC (Campylobacter fetus): 10 µg/mL
MIC (Campylobacter jejuni): 5 µg/mL
MIC (Bacteroides fragilis): 1.5 µg/mL
MIC [3]: 3 µg/mL
MIC (Mycoplasma bovis): 32 µg/mL
MIC (Klebsiella pneumoniae): 200 µg/mL
MIC (Mycoplasma bovirhinis): 4 µg/mL
MIC (Mycoplasma canadense): 8 µg/mL
MIC (Streptococcus uberis): 0.5 µg/mL
MIC (Aspergillus fumigatus): 25 µg/mL

Clc1ccccc1C(c1ccccc1)(c1ccccc1)n1ccnc1 [Clotrimazole, 1-(2-chlorophenyl)-diphenylmethyl-1H-imidazole]
MIC (Escherichia coli 17): > 200 µg/mL
effect on Escherichia coli strains, in words (Escherichia coli 17; substance alone): very weak effect
MIC (Escherichia coli 494): > 200 µg/mL
effect on Escherichia coli strains, in words (Escherichia coli 494; substance alone): very weak effect
MIC (Staphylococcus aureus): 0.5 µg/mL
MIC [1]: 0.5 µg/mL
MIC (Pseudomonas aeruginosa): > 200 µg/mL
MIC (Candida albicans; [4]): 5 µg/mL
MIC (Streptococcus agalactiae): 5 µg/mL
MIC [2]: 0.5 µg/mL
MIC (Streptococcus faecalis): 5 µg/mL
MIC (Listeria monocytogenes): 5 µg/mL
MIC (Corynebacterium pyogenes): 25 µg/mL
MIC (Salmonella typhimurium): 200 µg/mL
MIC (Campylobacter fetus): 100 µg/mL
MIC (Campylobacter jejuni): 100 µg/mL
MIC (Bacteroides fragilis): 200 µg/mL
MIC [3]: 100 µg/mL
MIC (Mycoplasma bovis): 32 µg/mL
MIC (Klebsiella pneumoniae): > 200 µg/mL
MIC (Mycoplasma bovirhinis): 32 µg/mL
MIC (Mycoplasma canadense): 32 µg/mL
MIC (Streptococcus uberis): 0.5 µg/mL
MIC (Aspergillus fumigatus): 1 µg/mL

CCC(C)CCCCC(=O)NC(CCN)C(=O)NC(C(=O)NC(CCN)C(=O)NC1CCNC(=O)C(C(C)O)NC(=O)C(CCN)NC(=O)C(CCN)NC(=O)C(CC(C)C)NC(=O)C(Cc2ccccc2)NC(=O)C(CCN)NC1=O)C(C)O (stereo not drawn) [Polymyxin B, 6,9,18-tris(2-aminoethyl)-15-benzyl-21-[2,8-bis(2-aminoethyl)-5-(1-hydroxyethyl)-15-methyl-4,7,10-trioxo-3,6,9-triazaheptadecanamido]-3-(1-hydroxyethyl)-12-isobutyl-1,4,7,10,13,16,19-heptaazacyclotricosane-2,5,8,11,14,17,20-heptaone] ({Octanoyl(6-Me)}-[Dab]T[Dab][Dab][Dab]FL[Dab][Dab]T; lactam 4-C; configuration not given here)
MIC values for microorganism D (Escherichia coli 17) (Escherichia coli 17; [5]): 0.5 µg/mL
MIC values for microorganism C (Escherichia coli 494) (Escherichia coli 494; [5]): 0.5 µg/mL
MIC values for microorganism A (Staphylococcus aureus) (Staphylococcus aureus; [5]): 50 µg/mL
MIC values for microorganism B (Streptococcus zooepidemicus) [1]: 5 µg/mL
MIC values for microorganism F (Pseudomonas aeruginosa) (Pseudomonas aeruginosa): 0.5 µg/mL
MIC values for microorganism G (Candida albicans) (Candida albicans; [4]): 200 µg/mL
fungicidal action, in words (Candida albicans; substance alone): practically no fungicidal action
MIC values for microorganism H (Streptococcus agalactiae) (Streptococcus agalactiae): 5 µg/mL
MIC values for microorganism I (Streptococcus dysgalactiae) [2]: 5 µg/mL
MIC values for microorganism K (Streptococcus faecalis) (Streptococcus faecalis): 200 µg/mL
MIC values for microorganism L (Listeria monocytogenes) (Listeria monocytogenes): 5 µg/mL
MIC values for microorganism M (Corynebacterium pyogenes) (Corynebacterium pyogenes): 200 µg/mL
MIC values for microorganism N (Salmonella typhimurium) (Salmonella typhimurium): 1 µg/mL
MIC values for microorganism O (Campylobacter fetus) (Campylobacter fetus): 0.5 µg/mL
MIC values for microorganism P (Campylobacter jejuni) (Campylobacter jejuni): 5 µg/mL
MIC values for microorganism R (Bacteroides fragilis) (Bacteroides fragilis): 200 µg/mL
MIC values for microorganism S (Fusobacterium necrophorum) [3]: 200 µg/mL
MIC values for microorganism T (Mycoplasma bovis) (Mycoplasma bovis): 32 µg/mL
MIC values for microorganism E (Klebsiella pneumoniae) (Klebsiella pneumoniae): 5 µg/mL
MIC values for microorganism U (Mycoplasma bovirhinis) (Mycoplasma bovirhinis): 32 µg/mL
MIC values for microorganism V (Mycoplasma canadense) (Mycoplasma canadense): 32 µg/mL
MIC values for microorganism J (Streptococcus uberis) (Streptococcus uberis): 10 µg/mL
MIC values for microorganism Z (Aspergillus fumigatus) (Aspergillus fumigatus): 200 µg/mL
